Measured values reported in the supplement of paper PMC12137928.
Counter-ions that a name gives are not always drawn.

Test system: HCT116
Conditions: 72 h
Procedure, shortened: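 For IC50 and maximal efficacy, four-parameter Hill fits were used. Input values were CellTiter-Glo luminescence from HCT116 cells seeded at 250 per well in 1536-well plates, normalized to vehicle (0%) and positive control (-100%). Pattern correction followed normalization.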

Row | IC50 cell viability (ICRF193 0 nM) | IC50 cell viability (ICRF193 200 nM) | SMILES
1 | > 45.8 µM | > 45.8 µM | CCOC(=O)C(C)(C)Oc1ccc(Cl)cc1 [Clofibrate]
2 | > 45.8 µM | > 45.8 µM | O=C(O)CCC/C=C\CC1C(O)CC(O)C1/C=C/C(O)COc1cccc(Cl)c1 (stereo not drawn) [Cloprostenol (sodium salt)]
3 | > 45.8 µM | > 45.8 µM | Cc1c(C(=O)O)c(O)cc2c1C(=O)c1c(O)c(C3OC(CO)C(O)C(O)C3O)c(O)c(O)c1C2=O (stereo not drawn) [Cochineal]
4 | > 45.8 µM | > 45.8 µM | CC1CC(OC(=O)C(O)c2ccccc2)CC(C)(C)C1 (stereo not drawn) [Cyclandelate]
5 | > 45.8 µM | > 45.8 µM | CN(C)CCOC(=O)C(c1ccccc1)C1(O)CCCC1 (stereo not drawn) [Cyclopentolate hydrochloride]
6 | > 45.8 µM | > 45.8 µM | O=C(O)C(O)C(O)C(=O)O (stereo not drawn) [D(-)-Tartaric acid]
7 | > 45.8 µM | > 45.8 µM | OC[C@H]1O[C@H](O[C@H]2[C@H](O)[C@@H](O)C(O)O[C@@H]2CO)[C@H](O)[C@@H](O)[C@@H]1O (stereo partly drawn) [D-(+)-MALTOSE]
8 | > 45.8 µM | > 45.8 µM | O=C(O)[C@H](O)c1ccccc1 [D-(-)-Mandelic acid]
9 | > 45.8 µM | > 45.8 µM | C[C@@H](N)C(=O)O [D-Alanine]
10 | > 45.8 µM | > 45.8 µM | N[C@H](CC(=O)O)C(=O)O [D-Aspartic acid]
11 | > 45.8 µM | > 45.8 µM | N[C@@H]1CONC1=O [D-Cycloserine]
12 | > 45.8 µM | > 45.8 µM | OC[C@@H](O)[C@H](O)[C@H](O)[C@@H](O)CO [D-Galactitol]
13 | > 45.8 µM | > 45.8 µM | O=C1O[C@@H]2[C@@H](O)[C@H](O)O[C@@H]2C1O (stereo partly drawn) [D-Glucuronolactone]
14 | > 45.8 µM | > 45.8 µM | N[C@H](CCC(=O)O)C(=O)O [D-Glutamic acid]
15 | > 45.8 µM | > 45.8 µM | NC(=O)CC[C@@H](N)C(=O)O [D-Glutamine]
16 | > 45.8 µM | > 45.8 µM | N[C@H](Cc1c[nH]cn1)C(=O)O [D-HISTIDINE]
17 | > 45.8 µM | > 45.8 µM | CC(C)C[C@@H](N)C(=O)O [D-Leucine]
18 | > 45.8 µM | > 45.8 µM | N[C@H](Cc1ccccc1)C(=O)O [D-Phenylalanine]
19 | > 45.8 µM | > 45.8 µM | N[C@H](CO)C(=O)O [D-SERINE]
20 | > 45.8 µM | > 45.8 µM | OC[C@H]1OC(O)[C@H](O)[C@@H](O)[C@@H]1O (stereo partly drawn) [DEXTROSE]

Continued, compound first:

Row | SMILES | IC50 cell viability (ICRF193 0 nM) | IC50 cell viability (ICRF193 200 nM)
21 | Cc1ncsc1CCCl [Clomethiazole] | > 45.8 µM | > 45.8 µM
22 | Clc1ccc(C(OCCN2CCCCC2)c2ccccc2)cc1 (stereo not drawn) [Cloperastine hydrochloride] | > 45.8 µM | > 45.8 µM
23 | Cc1nc(C)c(Cl)c(O)c1Cl [Clopidol] | > 45.8 µM | > 45.8 µM
24 | Oc1ccc(Cl)cc1Cc1ccccc1 [Clorophene] | > 45.8 µM | > 45.8 µM
25 | CC(C)NCC(O)c1ccccc1Cl (stereo not drawn) [Clorprenaline hydrochloride] | > 45.8 µM | > 45.8 µM
26 | Nc1cc(C(Cl)=C(Cl)Cl)c(S(N)(=O)=O)cc1S(N)(=O)=O [Clorsulon] | > 45.8 µM | > 45.8 µM
27 | CN1CCN(C2=Nc3ccccc3Sc3ccc(Cl)cc32)CC1 [Clothiapine] | > 45.8 µM | > 45.8 µM
28 | Cc1onc(-c2ccccc2Cl)c1C(=O)N[C@@H]1C(=O)N2[C@@H]1SC(C)(C)[C@@H]2C(=O)O [Cloxacillin sodium] | > 45.8 µM | > 45.8 µM
29 | O=C1CN2CCOC2(c2ccccc2Cl)c2cc(Cl)ccc2N1 (stereo not drawn) [Cloxazolam] | > 45.8 µM | > 45.8 µM
30 | Oc1ccc(Cl)c2cccnc12 [Cloxyquin] | > 45.8 µM | > 45.8 µM
31 | CN1CCN(C2=Nc3cc(Cl)ccc3Nc3ccccc32)CC1 [Clozapine] | > 45.8 µM | > 45.8 µM
32 | COC1=C(OC)C(=O)C(C/C=C(\C)CC/C=C(\C)CC/C=C(\C)CC/C=C(\C)CC/C=C(\C)CC/C=C(\C)CC/C=C(\C)CC/C=C(\C)CC/C=C(\C)CCC=C(C)C)=C(C)C1=O [Coenzyme Q10] | > 45.8 µM | > 45.8 µM
33 | CC(=O)OCC(=O)[C@@]1(O)CC[C@H]2[C@@H]3CCC4=CC(=O)CC[C@]4(C)[C@H]3C(=O)C[C@@]21C [Cortisone acetate] | > 45.8 µM | > 45.8 µM
34 | CCOP(=S)(OCC)Oc1ccc2c(C)c(Cl)c(=O)oc2c1 [Coumaphos] | > 45.8 µM | > 45.8 µM
35 | O=c1ccc2ccccc2o1 [Coumarin] | > 45.8 µM | > 45.8 µM
36 | CC(/C=C/C=C(\C)C(=O)O[C@@H]1O[C@H](CO[C@@H]2O[C@H](CO)[C@@H](O)[C@H](O)[C@H]2O)[C@@H](O)[C@H](O)[C@H]1O)=C\C=C\C=C(C)\C=C\C=C(/C)C(=O)O[C@@H]1O[C@H](CO[C@@H]2O[C@H](CO)[C@@H](O)[C@H](O)[C@H]2O)[C@@H](O)[C@H](O)[C@H]1O [Crocin?] | > 45.8 µM | > 45.8 µM
37 | CCOC(=O)c1cc(=O)c2c(OCC(COc3cccc4oc(C(=O)OCC)cc(=O)c34)OC(=O)[C@@H](N)CCCCN)cccc2o1 [Cromoglicate lisetil] | > 45.8 µM | > 45.8 µM
38 | CC=CC(=O)N(CC)c1ccccc1C [Crotamiton] | > 45.8 µM | > 45.8 µM
39 | CN1CCN(C(c2ccccc2)c2ccccc2)CC1 [Cyclizine hydrochloride] | > 45.8 µM | > 45.8 µM
40 | CC(=O)Oc1ccc(C(=C2CCCCC2)c2ccc(OC(C)=O)cc2)cc1 [Cyclofenil] | > 45.8 µM | > 45.8 µM
41 | CC1CCCCN1CCCOC(=O)c1ccc(OC2CCCCC2)cc1 (stereo not drawn) [Cyclomethycaine] | > 45.8 µM | > 45.8 µM
42 | CNC(C)CC1CCCC1 (stereo not drawn) [Cyclopentamine hydrochloride] | > 45.8 µM | > 45.8 µM

Row | SMILES | IC50 cell viability (ICRF193 0 nM) | IC50 cell viability (ICRF193 200 nM)
43 | NS(=O)(=O)c1cc2c(cc1Cl)NC(CC1CCCC1)NS2(=O)=O (stereo not drawn) [Cyclopenthiazide] | > 45.8 µM | > 45.8 µM
44 | O=P1(N(CCCl)CCCl)NCCCO1 (stereo not drawn) [Cyclophosphamide] | > 45.8 µM | > 45.8 µM
45 | NS(=O)(=O)c1cc2c(cc1Cl)NC(C1CC3C=CC1C3)NS2(=O)=O (stereo not drawn) [Cyclothiazide] | > 45.8 µM | > 45.8 µM
46 | C/C(=C1\CCOC(=O)S1)N(C=O)Cc1cnc(C)nc1N [Cycotiamine] | > 45.8 µM | > 45.8 µM
47 | OC(CCN1CCCCC1)(c1ccccc1)C1CCCC1 (stereo not drawn) [Cycrimine Hydrochloride] | > 45.8 µM | > 45.8 µM
48 | CN1CCC(=C2c3ccccc3C=Cc3ccccc32)CC1 [Cyproheptadine hydrochloride] | > 45.8 µM | > 45.8 µM
49 | CC(=O)O[C@]1(C(C)=O)CC[C@H]2[C@@H]3C=C(Cl)C4=CC(=O)[C@@H]5C[C@@H]5[C@]4(C)[C@H]3CC[C@@]21C [Cyproterone acetate] | > 45.8 µM | > 45.8 µM
50 | NCCS [Cysteamine hydrochloride] | > 45.8 µM | > 45.8 µM
51 | COP(=S)(OC)Oc1ccc(S(N)(=O)=O)cc1 [Cythioate] | > 45.8 µM | > 45.8 µM
52 | CC12CCC(CC1=O)C2(C)C [D-Camphor] | > 45.8 µM | > 45.8 µM
53 | CN1CCC[C@@H]1c1cccnc1 [D-Nicotine] | > 45.8 µM | > 45.8 µM
54 | CC(C)(CO)[C@@H](O)C(=O)NCCC(=O)NCCSSCCNC(=O)CCNC(=O)[C@H](O)C(C)(C)CO [D-Pantethine] | > 45.8 µM | > 45.8 µM
55 | Cc1c(C)c2c(c(C)c1OC(=O)CCC(=O)O)CC[C@@](C)(CCC[C@H](C)CCC[C@H](C)CCCC(C)C)O2 [D-alpha-Tocopherol succinate] | > 45.8 µM | > 45.8 µM
56 | Cc1cc(O)cc2c1O[C@](C)(CCC[C@H](C)CCC[C@H](C)CCCC(C)C)CC2 [D-delta-Tocopherol] | > 45.8 µM | > 45.8 µM
57 | CCN(CC)C(=O)c1cccc(C)c1 [DEET] | > 45.8 µM | > 45.8 µM
58 | CN(C)CC(c1ccc(O)cc1)C1(O)CCCCC1 (stereo not drawn) [DESVENLAFAXINE SUCCINATE] | > 45.8 µM | > 45.8 µM
59 | NC[C@@H]1CC[C@@H](N)[C@@H](O[C@H]2[C@H](O)[C@@H](O[C@H]3O[C@H](CO)[C@@H](O)[C@H](N)[C@H]3O)[C@H](N)C[C@@H]2N)O1 [DIBEKACIN] | > 45.8 µM | > 45.8 µM
60 | CC(C)(C)c1ccc2c(S(=O)(=O)O)c(C(C)(C)C)ccc2c1 [DIBUNATE SODIUM] | > 45.8 µM | > 45.8 µM
61 | CCN(CC)C(=O)N1CCN(C)CC1 [DIETHYLCARBAMAZINE CITRATE] | > 45.8 µM | > 45.8 µM
62 | CN[C@@H]1[C@H](O[C@H]2[C@H](O[C@H]3[C@H](O)[C@@H](O)[C@H](NC(=N)N)[C@@H](O)[C@@H]3NC(=N)N)O[C@@H](C)[C@]2(O)CO)O[C@@H](CO)[C@H](O)[C@H]1O [DIHYDROSTREPTOMYCIN [5mM]] | > 45.8 µM | > 45.8 µM
63 | CC/C=C\C/C=C\C/C=C\C/C=C\C/C=C\C/C=C\CCC(=O)O [DOCONEXENT] | > 45.8 µM | > 45.8 µM
64 | Cc1cc(CC(C)C[Si](C)(O[Si](C)(C)C)O[Si](C)(C)C)c(O)c(-n2nc3ccccc3n2)c1 (stereo not drawn) [DROMETRIZOLE TRISILOXANE] | > 45.8 µM | > 45.8 µM
